Experimental data from PubChem BioAssay (NCI).
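Results reflect a 48-hour exposure of cells in 96-well plates to compound at five concentrations. The concentration for 50% growth inhibition is given as GI50. The concentration for full growth arrest is given as TGI.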

Key:
Experiment in all cases: NCI-60 cell line screen, 48 h
SK-OV-3 ovarian = test system: SK-OV-3 ovarian
SF-268 CNS = test system: SF-268 CNS
SF-539 CNS = test system: SF-539 CNS
UACC-257 melanoma = test system: UACC-257 melanoma
RPMI-8226 leukemia = test system: RPMI-8226 leukemia
HS 578T breast = test system: HS 578T breast
UACC-62 melanoma = test system: UACC-62 melanoma
CAKI-1 renal = test system: CAKI-1 renal
SK-MEL-5 melanoma = test system: SK-MEL-5 melanoma
T-47D breast = test system: T-47D breast
OVCAR-5 ovarian = test system: OVCAR-5 ovarian
A498 renal = test system: A498 renal
HCC-2998 colon = test system: HCC-2998 colon
LOX IMVI melanoma = test system: LOX IMVI melanoma
SR leukemia = test system: SR leukemia
NCI-H522 lung = test system: NCI-H522 lung
SNB-75 CNS = test system: SNB-75 CNS
CCRF-CEM leukemia = test system: CCRF-CEM leukemia
MDA-MB-468 breast = test system: MDA-MB-468 breast
RXF 393 renal = test system: RXF 393 renal
DU-145 prostate = test system: DU-145 prostate
SN12C renal = test system: SN12C renal
SK-MEL-2 melanoma = test system: SK-MEL-2 melanoma
SF-295 CNS = test system: SF-295 CNS
786-0 renal = test system: 786-0 renal
KM12 colon = test system: KM12 colon
MALME-3M melanoma = test system: MALME-3M melanoma
OVCAR-3 ovarian = test system: OVCAR-3 ovarian
HCT-15 colon = test system: HCT-15 colon
TK-10 renal = test system: TK-10 renal
MDA-MB-435 = test system: MDA-MB-435
MCF7 breast = test system: MCF7 breast
EKVX NSCLC = test system: EKVX NSCLC

## Cn1cc(-c2cc(N)n3nc(-c4c[nH]c5ccc(Br)cc45)cc3n2)c2cccnc21
SK-OV-3 ovarian
  GI50: 22.8 µM
  TGI: 44.4 µM
SF-268 CNS
  GI50: 2.03 µM
  TGI: 4.71 µM
SF-539 CNS
  GI50: 1.58 µM
  TGI: 2.97 µM
UACC-257 melanoma
  GI50: 1.75 µM
  TGI: 3.48 µM
RPMI-8226 leukemia
  GI50: 4.04 µM
  TGI: > 100 µM
HS 578T breast
  GI50: 2.32 µM
  TGI: 5.61 µM
UACC-62 melanoma
  GI50: 1.73 µM
  TGI: 3.17 µM
CAKI-1 renal
  GI50: 1.8 µM
  TGI: 3.86 µM
SK-MEL-5 melanoma
  GI50: 1.75 µM
  TGI: 3.28 µM
T-47D breast
  GI50: 2.03 µM
  TGI: 5.07 µM
OVCAR-5 ovarian
  GI50: 1.41 µM
  TGI: 3.24 µM
A498 renal
  GI50: 1.72 µM
  TGI: 3.63 µM
HCC-2998 colon
  GI50: 1.82 µM
  TGI: 3.27 µM
LOX IMVI melanoma
  GI50: 1.82 µM
  TGI: 3.21 µM
SR leukemia
  GI50: 2.72 µM
  TGI: > 100 µM
NCI-H522 lung
  GI50: 1.85 µM
  TGI: 3.54 µM
SNB-75 CNS
  GI50: 1.29 µM
  TGI: 2.57 µM
CCRF-CEM leukemia
  GI50: 3.84 µM
  TGI: > 100 µM
MDA-MB-468 breast
  GI50: 1.59 µM
  TGI: 3.24 µM
RXF 393 renal
  GI50: 1.65 µM
  TGI: 3.24 µM
DU-145 prostate
  GI50: 1.82 µM
  TGI: 3.4 µM
SN12C renal
  GI50: 1.82 µM
  TGI: 3.72 µM
SK-MEL-2 melanoma
  GI50: 17.2 µM
  TGI: 40 µM
SF-295 CNS
  GI50: 2.2 µM
  TGI: 5.09 µM
786-0 renal
  GI50: 1.57 µM
  TGI: 3 µM
KM12 colon
  GI50: 1.78 µM
  TGI: 3.35 µM
MALME-3M melanoma
  GI50: 1.52 µM
  TGI: 2.91 µM
OVCAR-3 ovarian
  GI50: 1.67 µM
  TGI: 3.12 µM
HCT-15 colon
  GI50: 2.71 µM
  TGI: 8.28 µM
TK-10 renal
  GI50: 2.11 µM
  TGI: 7.4 µM
MDA-MB-435
  GI50: 1.7 µM
  TGI: 3.16 µM
MCF7 breast
  GI50: 3.01 µM
  TGI: > 100 µM
EKVX NSCLC
  GI50: 2.34 µM
  TGI: 6.04 µM
